Tested on: cGVHD symptom burden
Test: Example 1: Lee Symptom Scale (LSS) score
Type: in vivo, human
Protocol: Lee Symptom Scale (LSS) summary score measures the effect on patients' functioning and well-being. The Lee Symptom Scale is a 30-item scale developed to measure the symptoms of cGVHD and is described in Lec S J, Cook E F, Soiffer R, Antin J H. Development and validation of a scale to measure symptoms of chronic graft-versushost disease. Biol Blood Marrow Transplant 2002; 8:444-452.
All responses were assessed by the investigators.
Change From Baseline in Overall Score on Lee cGvHD Symptom Scale at Specified Time Points. Lee cGVHD symptom scale, a patient-reported symptom scale used to measure symptom burden and has 7 subscales (Skin, Eyes and Mouth, Breathing, Eating and Digestion, Muscles and Joints, Energy, and Mental and Emotional) with ratings as follows: 0—Not at all, 1—Slightly, 2—Moderately, 3—Quite a bit, 4—Extremely, with lower values representing better outcome. Score for each subscale was normalized to a score ranged from 0 to 100, where higher score=worse symptoms. An overall score was calculated as average of these 7 subscales. EOT visit was performed within 3 days after the participant's last dose of study drug. Baseline value was defined as valid and last non-missing value obtained within 28 days prior to participant receiving first study medication. […] Analysis was performed on mITT population. Here, ‘number analyzed’=participants with available data for each specified category. Here, ‘0’ in the number analyzed field signifies that none of the participants were available for the analysis at the specified time points.

## CC(C)NC(=O)COc1cccc(-c2nc(Nc3ccc4[nH]ncc4c3)c3ccccc3n2)c1 [Belumosudil, 2-{3-[4-(1H-indazol-5-ylamino)-2-quinazolinyl]phenoxy}-N-(propan-2-yl) acetamide]
Cohort 1 200 mg QD
  LSS improvement, nonresponder, n/N: 1/6
  LSS improvement, responder, n/N: 8/11
Cohort 1: 200 mg QD, Cycle 3, Day 1
  Change From Baseline in Overall Score on Lee cGvHD Symptom Scale, Mean (Standard Deviation): −3.0 (8.5) score on a scale
Cohort 1: 200 mg QD, Cycle 5, Day 1
  Change From Baseline in Overall Score on Lee cGvHD Symptom Scale, Mean (Standard Deviation): −3.7 (11.0) score on a scale
Cohort 1: 200 mg QD, Cycle 7, Day 1
  Change From Baseline in Overall Score on Lee cGvHD Symptom Scale, Mean (Standard Deviation): −4.9 (8.4) score on a scale
Cohort 1: 200 mg QD, Cycle 9, Day 1
  Change From Baseline in Overall Score on Lee cGvHD Symptom Scale, Mean (Standard Deviation): −3.7 (10.7) score on a scale
Cohort 1: 200 mg QD, Cycle 11, Day 1
  Change From Baseline in Overall Score on Lee cGvHD Symptom Scale, Mean (Standard Deviation): −3.4 (11.5) score on a scale
Cohort 1: 200 mg QD, Cycle 12, Day 1
  Change From Baseline in Overall Score on Lee cGvHD Symptom Scale, Mean (Standard Deviation): −3.9 (8.1) score on a scale
Cohort 1: 200 mg QD, Cycle 13, Day 1
  Change From Baseline in Overall Score on Lee cGvHD Symptom Scale, Mean (Standard Deviation): −5.8 (14.7) score on a scale
Cohort 1: 200 mg QD, Cycle 14, Day 1
  Change From Baseline in Overall Score on Lee cGvHD Symptom Scale, Mean (Standard Deviation): −1.6 (17.1) score on a scale
Cohort 1: 200 mg QD, Cycle 15, Day 1
  Change From Baseline in Overall Score on Lee cGvHD Symptom Scale, Mean (Standard Deviation): −4.8 (15.8) score on a scale
Cohort 1: 200 mg QD, Cycle 16, Day 1
  Change From Baseline in Overall Score on Lee cGvHD Symptom Scale, Mean (Standard Deviation): −4.6 (16.1) score on a scale
Cohort 1: 200 mg QD, Cycle 27, Day 1
  Change From Baseline in Overall Score on Lee cGvHD Symptom Scale, Mean (Standard Deviation): −3.5 (25.3) score on a scale
Cohort 1: 200 mg QD, Cycle 28, Day 1
  Change From Baseline in Overall Score on Lee cGvHD Symptom Scale, Mean (Standard Deviation): 4.4 (13.4) score on a scale
Cohort 1: 200 mg QD, Cycle 29, Day 1
  Change From Baseline in Overall Score on Lee cGvHD Symptom Scale, Mean (Standard Deviation): −2.8 (23.7) score on a scale
Cohort 1: 200 mg QD, Cycle 30, Day 1
  Change From Baseline in Overall Score on Lee cGvHD Symptom Scale, Mean (Standard Deviation): 9.0 (7.5) score on a scale
Cohort 1: 200 mg QD, Cycle 31, Day 1
  Change From Baseline in Overall Score on Lee cGvHD Symptom Scale, Mean (Standard Deviation): −4.8 (27.9) score on a scale
Cohort 1: 200 mg QD, Cycle 32, Day 1
  Change From Baseline in Overall Score on Lee cGvHD Symptom Scale, Mean (Standard Deviation): 10.3 (6.9) score on a scale
Cohort 1: 200 mg QD, Cycle 33, Day 1
  Change From Baseline in Overall Score on Lee cGvHD Symptom Scale, Mean (Standard Deviation): 0.5 (20.7) score on a scale
Cohort 1: 200 mg QD, Cycle 34, Day 1
  Change From Baseline in Overall Score on Lee cGvHD Symptom Scale, Mean (Standard Deviation): 13.5 (3.6) score on a scale
Cohort 1: 200 mg QD, Cycle 35, Day 1
  Change From Baseline in Overall Score on Lee cGvHD Symptom Scale, Mean (Standard Deviation): −2.5 (23.3) score on a scale
Cohort 1: 200 mg QD, Cycle 36, Day 1
  Change From Baseline in Overall Score on Lee cGvHD Symptom Scale, Mean (Standard Deviation): 7.5 (6.4) score on a scale
Cohort 1: 200 mg QD, Cycle 37, Day 1
  Change From Baseline in Overall Score on Lee cGvHD Symptom Scale, Mean (Standard Deviation): −5.3 (29.0) score on a scale
Cohort 1: 200 mg QD, Cycle 38, Day 1
  Change From Baseline in Overall Score on Lee cGvHD Symptom Scale, Mean (Standard Deviation): 9.1 (5.2) score on a scale
Cohort 1: 200 mg QD, Cycle 39, Day 1
  Change From Baseline in Overall Score on Lee cGvHD Symptom Scale, Mean (Standard Deviation): −6.2 (25.9) score on a scale
Cohort 1: 200 mg QD, Cycle 40, Day 1
  Change From Baseline in Overall Score on Lee cGvHD Symptom Scale, Mean (Standard Deviation): 2.7 (—) score on a scale
Cohort 1: 200 mg QD, Cycle 41, Day 1
  Change From Baseline in Overall Score on Lee cGvHD Symptom Scale, Mean (Standard Deviation): −25.7 (—) score on a scale
Cohort 1: 200 mg QD, Cycle 42, Day 1
  Change From Baseline in Overall Score on Lee cGvHD Symptom Scale, Mean (Standard Deviation): 4.6 (—) score on a scale
Cohort 1: 200 mg QD, Cycle 43, Day 1
  Change From Baseline in Overall Score on Lee cGvHD Symptom Scale, Mean (Standard Deviation): −20.4 (—) score on a scale
Cohort 1: 200 mg QD, Cycle 44, Day 1
  Change From Baseline in Overall Score on Lee cGvHD Symptom Scale, Mean (Standard Deviation): 4.3 (—) score on a scale
Cohort 1: 200 mg QD, Cycle 46, Day 1
  Change From Baseline in Overall Score on Lee cGvHD Symptom Scale, Mean (Standard Deviation): 4.6 (—) score on a scale
Cohort 1: 200 mg QD, Cycle 47, Day 1
  Change From Baseline in Overall Score on Lee cGvHD Symptom Scale, Mean (Standard Deviation): −6.8 (—) score on a scale
Cohort 1: 200 mg QD, Cycle 48, Day 1
  Change From Baseline in Overall Score on Lee cGvHD Symptom Scale, Mean (Standard Deviation): 2.4 (—) score on a scale
Cohort 1: 200 mg QD, Cycle 50, Day 1
  Change From Baseline in Overall Score on Lee cGvHD Symptom Scale, Mean (Standard Deviation): 4.5 (—) score on a scale
Cohort 1: 200 mg QD, Cycle 51, Day 1
  Change From Baseline in Overall Score on Lee cGvHD Symptom Scale, Mean (Standard Deviation): −12.0 (—) score on a scale
Cohort 1: 200 mg QD, Cycle 52, Day 1
  Change From Baseline in Overall Score on Lee cGvHD Symptom Scale, Mean (Standard Deviation): 6.0 (—) score on a scale
Cohort 1: 200 mg QD, Cycle 53, Day 1
  Change From Baseline in Overall Score on Lee cGvHD Symptom Scale, Mean (Standard Deviation): −19.2 (—) score on a scale
Cohort 1: 200 mg QD, Cycle 54, Day 1
  Change From Baseline in Overall Score on Lee cGvHD Symptom Scale, Mean (Standard Deviation): 4.9 (—) score on a scale
Cohort 1: 200 mg QD, Cycle 55, Day 1
  Change From Baseline in Overall Score on Lee cGvHD Symptom Scale, Mean (Standard Deviation): −16.8 (—) score on a scale
Cohort 1: 200 mg QD, Cycle 56, Day 1
  Change From Baseline in Overall Score on Lee cGvHD Symptom Scale, Mean (Standard Deviation): 1.8 (—) score on a scale
Cohort 1: 200 mg QD, Cycle 57, Day 1
  Change From Baseline in Overall Score on Lee cGvHD Symptom Scale, Mean (Standard Deviation): −17.6 (—) score on a scale
Cohort 1: 200 mg QD, Cycle 58, Day 1
  Change From Baseline in Overall Score on Lee cGvHD Symptom Scale, Mean (Standard Deviation): 5.4 (—) score on a scale
Cohort 1: 200 mg QD, Cycle 59, Day 1
  Change From Baseline in Overall Score on Lee cGvHD Symptom Scale, Mean (Standard Deviation): −12.7 (—) score on a scale
Cohort 1: 200 mg QD, Cycle 60, Day 1
  Change From Baseline in Overall Score on Lee cGvHD Symptom Scale, Mean (Standard Deviation): 4.2 (—) score on a scale
Cohort 1: 200 mg QD, Cycle 61, Day 1
  Change From Baseline in Overall Score on Lee cGvHD Symptom Scale, Mean (Standard Deviation): −19.3 (—) score on a scale
Cohort 1: 200 mg QD, Cycle 62, Day 1
  Change From Baseline in Overall Score on Lee cGvHD Symptom Scale, Mean (Standard Deviation): 4.4 (—) score on a scale
Cohort 1: 200 mg QD, Cycle 63, Day 1
  Change From Baseline in Overall Score on Lee cGvHD Symptom Scale, Mean (Standard Deviation): −18.0 (—) score on a scale
Cohort 1: 200 mg QD, Cycle 67, Day 1
  Change From Baseline in Overall Score on Lee cGvHD Symptom Scale, Mean (Standard Deviation): −21.9 (—) score on a scale
Cohort 1: 200 mg QD, EOT
  Change From Baseline in Overall Score on Lee cGvHD Symptom Scale, Mean (Standard Deviation): −4.3 (11.7) score on a scale
Cohort 2 200 mg BID
  LSS improvement, nonresponder, n/N: 4/5
  LSS improvement, responder, n/N: 3/11
Cohort 2: 200 mg BID, Cycle 3, Day 1
  Change From Baseline in Overall Score on Lee cGvHD Symptom Scale, Mean (Standard Deviation): 0.5 (7.3) score on a scale
Cohort 2: 200 mg BID, Cycle 5, Day 1
  Change From Baseline in Overall Score on Lee cGvHD Symptom Scale, Mean (Standard Deviation): −3.7 (7.0) score on a scale
Cohort 2: 200 mg BID, Cycle 7, Day 1
  Change From Baseline in Overall Score on Lee cGvHD Symptom Scale, Mean (Standard Deviation): −2.2 (8.8) score on a scale
Cohort 2: 200 mg BID, Cycle 8, Day 1
  Change From Baseline in Overall Score on Lee cGvHD Symptom Scale, Mean (Standard Deviation): −7.1 (10.1) score on a scale
Cohort 2: 200 mg BID, Cycle 9, Day 1
  Change From Baseline in Overall Score on Lee cGvHD Symptom Scale, Mean (Standard Deviation): −4.2 (5.5) score on a scale

— patent publication US20260027116A1, “Methods of Treating Chronic Graft-Versus-Host Disease Following Allogeneic Hematopoietic Stem Cell Transplantation” (Kadmon Corporation, LLC, priority 2022, published 2026)
